Results from US20150125403A1, “PERSONAL CARE AND COSMETIC COMPOSITIONS COMPRISING RENEWABLY-BASED, BIODEGRADABLE 1,3-PROPANEDIOL” (DuPont Tate & Lyle Bio Products Company, LLC, priority 2006, published 2015).

How the values were obtained:
[1] = viscosity of the composition; assay type: physicochemical; conditions: cosmetic emulsion of Example 1 made with the named glycol instead of Bio-PDO
Procedure: Brookfield Model RV−Spindle 5 at 20 rpm for 1 minute (factor×200)
Brookfield Model RV−Spindle T at 5 rpm for 1 minute (factor×10,000)

human skin [2] = test: human skin patch test with approximately 100 subjects; assay type: in vivo; conditions: 5, 25, and 50% PDO
From the text: (§1) Based on these studies PDO is not expected to be a skin irritant or sensitizer in humans.

human skin [3] = test: second human skin patch test; assay type: in vivo; conditions: 25, 50, and 75% (pH 7)
From the text: as §1

Compound	viscosity of the cosmetic emulsion containing the glycol [1]	skin reactions indicative of irritation or sensitization (human skin [2])	patch test irritation and cumulative irritation of human skin (human skin [3])
CC(O)CCO (centres unmarked) [1,3-butylene glycol]	6000 cps	–	–
CC(CO)CO [2-methyl-1,3-propanediol]	9600 cps	–	–
OCCCO [PDO, 1,3-propanediol]	–	did not cause any skin reactions indicative of irritation or sensitization	–
CC(O)CO (centres unmarked) [propylene glycol, 1,2-propanediol]	12600 cps	–	patch test irritants and cumulative irritants for human skin
